Tested on: SW1271 complex spheroids with HUVEC/MSC, growth, % test/control
Assay: Anticancer human tumor SW1271 cell line growth inhibition [AhR];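 also: spheroids exposed to agents for 7 days before readout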
Conditions: for IC50: curve of first compound; for viability, T/C: stronger effect = lower value
Method in brief: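 Agents were dosed in half-log steps down from roughly clinical Cmax, or from 10 microM where Cmax was unknown, alone and with AhR antagonists. Read-out: percent test/control growth of tumor spheroids containing HUVEC and MSC stromal cells.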

[1] = second compound 0.1 µM, first compound 0.0316 µM
[2] = second compound 0.1 µM, first compound 0.1 µM
[3] = second compound 0.1 µM, first compound 0.316 µM
[4] = second compound 0.1 µM, first compound 1 µM
[5] = second compound 0.316 µM, first compound 0.0316 µM
[6] = second compound 0.316 µM, first compound 0.1 µM
[7] = second compound 0.316 µM, first compound 0.316 µM
[8] = second compound 0.316 µM, first compound 1 µM
[9] = second compound 1 µM, first compound 0.0316 µM
[10] = second compound 1 µM, first compound 0.1 µM
[11] = second compound 1 µM, first compound 0.316 µM
[12] = second compound 1 µM, first compound 1 µM
[13] = second compound 3.16 µM, first compound 0.0316 µM
[14] = second compound 3.16 µM, first compound 0.1 µM
[15] = second compound 3.16 µM, first compound 0.316 µM
[16] = second compound 3.16 µM, first compound 1 µM
[17] = second compound 10 µM, first compound 0.0316 µM
[18] = second compound 10 µM, first compound 0.1 µM
[19] = second compound 10 µM, first compound 0.316 µM
[20] = second compound 10 µM, first compound 1 µM
[21] = second compound 0.1 µM, first compound 3.16 µM
[22] = second compound 0.1 µM, first compound 10 µM
[23] = second compound 0.316 µM, first compound 3.16 µM
[24] = second compound 0.316 µM, first compound 10 µM
[25] = second compound 1 µM, first compound 3.16 µM
[26] = second compound 1 µM, first compound 10 µM
[27] = second compound 3.16 µM, first compound 3.16 µM
[28] = second compound 3.16 µM, first compound 10 µM
[29] = second compound 10 µM, first compound 3.16 µM
[30] = second compound 10 µM, first compound 10 µM
[31] = second compound 0.1 µM, first compound 0.00949 µM
[32] = second compound 0.1 µM, first compound 0.03 µM
[33] = second compound 0.1 µM, first compound 0.0949 µM
[34] = second compound 0.1 µM, first compound 0.3 µM
[35] = second compound 0.316 µM, first compound 0.00949 µM
[36] = second compound 0.316 µM, first compound 0.03 µM
[37] = second compound 0.316 µM, first compound 0.0949 µM
[38] = second compound 0.316 µM, first compound 0.3 µM
[39] = second compound 1 µM, first compound 0.00949 µM
[40] = second compound 1 µM, first compound 0.03 µM
[41] = second compound 1 µM, first compound 0.0949 µM
[42] = second compound 1 µM, first compound 0.3 µM
[43] = second compound 3.16 µM, first compound 0.00949 µM
[44] = second compound 3.16 µM, first compound 0.03 µM
[45] = second compound 3.16 µM, first compound 0.0949 µM
[46] = second compound 3.16 µM, first compound 0.3 µM
[47] = second compound 10 µM, first compound 0.00949 µM
[48] = second compound 10 µM, first compound 0.03 µM
[49] = second compound 10 µM, first compound 0.0949 µM
[50] = second compound 10 µM, first compound 0.3 µM

Structure (SMILES): CC1COCCN1c1cc(-c2ccnn2C)c2ccnc(-c3ccn[nH]3)c2n1 (stereo not given) + Cc1cncc(-c2nc(NCCc3c[nH]c4ccccc34)c3ncn(C(C)C)c3n2)c1
- IC50 (second compound 0.1 µM): 413 nM
- IC50 (second compound 0.316 µM): 251 nM
- IC50 (second compound 1 µM): 653 nM
- IC50 (second compound 3.16 µM): 735 nM
- IC50 (second compound 10 µM): < 3.16 nM
- viability, T/C (second compound 0.1 µM, first compound 0.00316 µM): 79.6%
- viability, T/C (second compound 0.1 µM, first compound 0.01 µM): 86.7%
- viability, T/C [1]: 70.2%
- viability, T/C [2]: 57.4%
- viability, T/C [3]: 58%
- viability, T/C [4]: 39.4%
- viability, T/C (second compound 0.316 µM, first compound 0.00316 µM): 68%
- viability, T/C (second compound 0.316 µM, first compound 0.01 µM): 90.1%
- viability, T/C [5]: 70.4%
- viability, T/C [6]: 62.2%
- viability, T/C [7]: 48%
- viability, T/C [8]: 35.1%
- viability, T/C (second compound 1 µM, first compound 0.00316 µM): 89.8%
- viability, T/C (second compound 1 µM, first compound 0.01 µM): 88%
- viability, T/C [9]: 75.3%
- viability, T/C [10]: 63%
- viability, T/C [11]: 62%
- viability, T/C [12]: 44.2%
- viability, T/C (second compound 3.16 µM, first compound 0.00316 µM): 72.2%
- viability, T/C (second compound 3.16 µM, first compound 0.01 µM): 85.2%
- viability, T/C [13]: 72.4%
- viability, T/C [14]: 70.2%
- viability, T/C [15]: 61.3%
- viability, T/C [16]: 46%
- viability, T/C (second compound 10 µM, first compound 0.00316 µM): 30.2%
- viability, T/C (second compound 10 µM, first compound 0.01 µM): 35%
- viability, T/C [17]: 36.9%
- viability, T/C [18]: 36.2%
- viability, T/C [19]: 35%
- viability, T/C [20]: 24.6%

Structure (SMILES): CC1COCCN1c1cc(C2(S(C)(=N)=O)CC2)nc(-c2ccnc3[nH]ccc23)n1 (stereo not given) + Cc1cncc(-c2nc(NCCc3c[nH]c4ccccc34)c3ncn(C(C)C)c3n2)c1
- IC50 (second compound 0.1 µM): > 10000 nM
- IC50 (second compound 0.316 µM): > 10000 nM
- IC50 (second compound 1 µM): > 10000 nM
- IC50 (second compound 3.16 µM): > 10000 nM
- IC50 (second compound 10 µM): < 31.6 nM
- viability, T/C [1]: 87.4%
- viability, T/C [2]: 103%
- viability, T/C [3]: 85.7%
- viability, T/C [4]: 88.1%
- viability, T/C [21]: 85.3%
- viability, T/C [22]: 67.8%
- viability, T/C [5]: 85.5%
- viability, T/C [6]: 103%
- viability, T/C [7]: 106%
- viability, T/C [8]: 103%
- viability, T/C [23]: 71.7%
- viability, T/C [24]: 52.6%
- viability, T/C [9]: 83.7%
- viability, T/C [10]: 87.7%
- viability, T/C [11]: 88.7%
- viability, T/C [12]: 84.5%
- viability, T/C [25]: 90.2%
- viability, T/C [26]: 62.7%
- viability, T/C [13]: 83%
- viability, T/C [14]: 93%
- viability, T/C [15]: 93.6%
- viability, T/C [16]: 71.1%
- viability, T/C [27]: 69.4%
- viability, T/C [28]: 59.3%
- viability, T/C [17]: 51.6%
- viability, T/C [18]: 46.9%
- viability, T/C [19]: 45.5%
- viability, T/C [20]: 40%
- viability, T/C [29]: 43.3%
- viability, T/C [30]: 28.9%

Structure (SMILES): COc1ccc([C@@H](O)c2cc(-c3ncnc4cc(N5CCOCC5)ccc34)c(F)cc2Cl)nn1 + Cc1cncc(-c2nc(NCCc3c[nH]c4ccccc34)c3ncn(C(C)C)c3n2)c1
- IC50 (second compound 0.1 µM): 1850 nM
- IC50 (second compound 0.316 µM): 3900 nM
- IC50 (second compound 1 µM): 2890 nM
- IC50 (second compound 3.16 µM): 5060 nM
- IC50 (second compound 10 µM): < 31.6 nM
- viability, T/C [1]: 82.7%
- viability, T/C [2]: 93.6%
- viability, T/C [3]: 83.2%
- viability, T/C [4]: 56.7%
- viability, T/C [21]: 47.9%
- viability, T/C [22]: 36.7%
- viability, T/C [5]: 87.3%
- viability, T/C [6]: 96.7%
- viability, T/C [7]: 75.1%
- viability, T/C [8]: 72.7%
- viability, T/C [23]: 52.2%
- viability, T/C [24]: 36.9%
- viability, T/C [9]: 91.3%
- viability, T/C [10]: 87.3%
- viability, T/C [11]: 93.3%
- viability, T/C [12]: 68.2%
- viability, T/C [25]: 50.8%
- viability, T/C [26]: 36.3%
- viability, T/C [13]: 81.6%
- viability, T/C [14]: 99%
- viability, T/C [15]: 81.9%
- viability, T/C [16]: 70.1%
- viability, T/C [27]: 55.8%
- viability, T/C [28]: 43.2%
- viability, T/C [17]: 45.5%
- viability, T/C [18]: 43.3%
- viability, T/C [19]: 41.5%
- viability, T/C [20]: 36%
- viability, T/C [29]: 22.1%
- viability, T/C [30]: 18.1%

Structure (SMILES): Nc1ncn(C2CC(O)C(CO)S2)c(=O)n1 (stereo not given) + Cc1cncc(-c2nc(NCCc3c[nH]c4ccccc34)c3ncn(C(C)C)c3n2)c1
- IC50 (second compound 0.1 µM): > 300 nM
- IC50 (second compound 0.316 µM): > 300 nM
- IC50 (second compound 1 µM): > 300 nM
- IC50 (second compound 3.16 µM): > 300 nM
- IC50 (second compound 10 µM): < 0.949 nM
- viability, T/C (second compound 0.1 µM, first compound 0.000949 µM): 73.1%
- viability, T/C (second compound 0.1 µM, first compound 0.003 µM): 93.7%
- viability, T/C [31]: 97.1%
- viability, T/C [32]: 90.9%
- viability, T/C [33]: 99.6%
- viability, T/C [34]: 98.5%
- viability, T/C (second compound 0.316 µM, first compound 0.000949 µM): 94.2%
- viability, T/C (second compound 0.316 µM, first compound 0.003 µM): 84.2%
- viability, T/C [35]: 81.8%
- viability, T/C [36]: 84.8%
- viability, T/C [37]: 101%
- viability, T/C [38]: 90.9%
- viability, T/C (second compound 1 µM, first compound 0.000949 µM): 93.8%
- viability, T/C (second compound 1 µM, first compound 0.003 µM): 104%
- viability, T/C [39]: 104%
- viability, T/C [40]: 98.7%
- viability, T/C [41]: 96.9%
- viability, T/C [42]: 90.5%
- viability, T/C (second compound 3.16 µM, first compound 0.000949 µM): 94.1%
- viability, T/C (second compound 3.16 µM, first compound 0.003 µM): 86.4%
- viability, T/C [43]: 86%
- viability, T/C [44]: 82.3%
- viability, T/C [45]: 74.2%
- viability, T/C [46]: 78.4%
- viability, T/C (second compound 10 µM, first compound 0.000949 µM): 45.5%
- viability, T/C (second compound 10 µM, first compound 0.003 µM): 44.8%
- viability, T/C [47]: 45.6%
- viability, T/C [48]: 39.8%
- viability, T/C [49]: 49.3%
- viability, T/C [50]: 43.9%

Structure (SMILES): O=C(C=Cn1cnc(-c2cc(C(F)(F)F)cc(C(F)(F)F)c2)n1)NNc1cnccn1 + Cc1cncc(-c2nc(NCCc3c[nH]c4ccccc34)c3ncn(C(C)C)c3n2)c1
- IC50 (second compound 0.1 µM): 913 nM
- IC50 (second compound 0.316 µM): 2330 nM
- IC50 (second compound 1 µM): 2470 nM
- IC50 (second compound 3.16 µM): > 3000 nM
- IC50 (second compound 10 µM): < 9.49 nM
- viability, T/C [31]: 83.3%
- viability, T/C [32]: 103%
- viability, T/C [33]: 87.1%
- viability, T/C [34]: 82.4%
- viability, T/C (second compound 0.1 µM, first compound 0.949 µM): 48.6%
- viability, T/C (second compound 0.1 µM, first compound 3 µM): 44.6%
- viability, T/C [35]: 88.2%
- viability, T/C [36]: 91.9%
- viability, T/C [37]: 88%
- viability, T/C [38]: 74.5%
- viability, T/C (second compound 0.316 µM, first compound 0.949 µM): 65.9%
- viability, T/C (second compound 0.316 µM, first compound 3 µM): 45.6%
- viability, T/C [39]: 105%
- viability, T/C [40]: 96.6%
- viability, T/C [41]: 97.7%
- viability, T/C [42]: 72.2%
- viability, T/C (second compound 1 µM, first compound 0.949 µM): 62.8%
- viability, T/C (second compound 1 µM, first compound 3 µM): 47%
- viability, T/C [43]: 97.7%
- viability, T/C [44]: 88.2%
- viability, T/C [45]: 97.5%
- viability, T/C [46]: 87.7%
- viability, T/C (second compound 3.16 µM, first compound 0.949 µM): 67.7%
- viability, T/C (second compound 3.16 µM, first compound 3 µM): 53.2%
- viability, T/C [47]: 44.4%
- viability, T/C [48]: 48.4%
- viability, T/C [49]: 55%
- viability, T/C [50]: 59.3%
- viability, T/C (second compound 10 µM, first compound 0.949 µM): 50.1%
- viability, T/C (second compound 10 µM, first compound 3 µM): 47.7%

— PubChem BioAssay AID1919017 (Molecular Pharmacology Branch, DTP, NCI, 2023)
